Laboratory results taken from patent publication US10035800B2 (AbbVie Inc., priority 2013, dated 2018).

Assays:
[1] = target: T1, BRD4 (BDI_K57-E168) (Homo sapiens, UniProt O60885); assay: TR-FRET bromodomain binding assay, first bromodomain of BRD4; conditions: TR-FRET assay protocol G (compound 0.92 μM-15 pM); 100 nM probe
T1 construct: BD1: amino acids K57-E168; made in house
Summary of the method: (§1)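 TR-FRET displacement of an Alexa647-labelled BET-inhibitor probe from His-tagged BRD4 BD1 or BD2 (8 nM), read via 1 nM Eu-anti-His antibody after 1 h at room temperature. Buffer was 20 mM sodium phosphate pH 6.0 with 2% DMSO. Probe was 100 nM for BDI and 30 nM for BDII. IC50 came from 4-parameter fits, and Ki from IC50, probe Kd and probe concentration.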

[2] = target: T2, BRD4 (BDII_E352-M457) (Homo sapiens, UniProt O60885); assay: TR-FRET bromodomain binding assay, second bromodomain of BRD4; conditions: TR-FRET assay protocol G (compound 0.92 μM-15 pM); 30 nM probe
T2 construct: protocol; made in house
Summary of the method: as §1

[3] = test system: breast cancer cell line MX-1; assay: MX-1 cell line proliferation assay; format: cell-based; conditions: MX-1 cells, 3-day proliferation assay, Cell Titer Glo; read-out: Cellular proliferation: EC50
Summary of the method: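 MX-1 cells at 5000/well, in RPMI 1640 with 10% FBS, were exposed to compounds for 3 days. Final concentrations ranged 3 μM–0.1 nM or 1 μM–0.03 nM, in 3-fold steps. Cell Titer Glo luminescence was normalized to DMSO and fitted sigmoidally for EC50; overall MSR 2.1.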

SMILES | Ki [1] | Ki [2] | EC50 [3]
Cn1cc2c3c(c[nH]c3c1=O)C(CCC(=O)N1CCOCC1)N(c1ccc(F)cc1F)c1ccc(CS(C)(=O)=O)cc1-2 (stereo not drawn) [Example 120, 4-(2,4-difluorophenyl)-10-methyl-7-((methylsulfonyl)methyl)-3-(3-morpholino-3-oxopropyl)-3,4-dihydro-1H-1,4,10-triazadibenzo[cd,f]azulen-11(10H)-one] | 9.28 nM | 1.59 nM | > 1000 nM
Cn1cc2c3c(c[nH]c3c1=O)C(CCC(=O)NC1CCOCC1)N(c1ccc(F)cc1F)c1ccc(CS(C)(=O)=O)cc1-2 (stereo not drawn) [Example 121, 3-(4-(2,4-difluorophenyl)-10-methyl-7-((methylsulfonyl)methyl)-11-oxo-3,4,10,11-tetrahydro-1H-1,4,10-triazadibenzo[cd,f]azulen-3-yl)-N-(tetrahydro-2H-pyran-4-yl)propanamide] | 6.65 nM | 0.799 nM | > 1000 nM
CN(NC(=O)CCC1c2c[nH]c3c(=O)n(C)cc(c23)-c2cc(CS(C)(=O)=O)ccc2N1c1ccc(F)cc1F)c1ccccc1 (stereo not drawn) [Example 122, 3-(4-(2,4-difluorophenyl)-10-methyl-7-((methylsulfonyl)methyl)-11-oxo-3,4,10,11-tetrahydro-1H-1,4,10-triazadibenzo[cd,f]azulen-3-yl)-N′-methyl-N′-phenylpropanehydrazide] | 10.8 nM | 0.922 nM | > 1000 nM
Cn1cc2c3c(c[nH]c3c1=O)C(CCC(=O)NCc1ccccc1)N(c1ccc(F)cc1F)c1ccc(CS(C)(=O)=O)cc1-2 (stereo not drawn) [Example 123, N-benzyl-3-(4-(2,4-difluorophenyl)-10-methyl-7-((methylsulfonyl)methyl)-11-oxo-3,4,10,11-tetrahydro-1H-1,4,10-triazadibenzo[cd,f]azulen-3-yl)propanamide] | 9.95 nM | 0.983 nM | > 1000 nM
Cn1cc2c3c(c[nH]c3c1=O)C(CCC(=O)NC1CCS(=O)(=O)C1)N(c1ccc(F)cc1F)c1ccc(CS(C)(=O)=O)cc1-2 (stereo not drawn) [Example 124, 3-(4-(2,4-difluorophenyl)-10-methyl-7-((methylsulfonyl)methyl)-11-oxo-3,4,10,11-tetrahydro-1H-1,4,10-triazadibenzo[cd,f]azulen-3-yl)-N-(1,1-dioxidotetrahydrothiophen-3-yl)propanamide] | 8.84 nM | 2.78 nM | 944 nM
Cn1cc2c3c(c[nH]c3c1=O)C(CCC(=O)N1CCN(C(=O)OC(C)(C)C)CC1)N(c1ccc(F)cc1F)c1ccc(CS(C)(=O)=O)cc1-2 (stereo not drawn) [Example 125, tert-butyl 4-(3-(4-(2,4-difluorophenyl)-10-methyl-7-((methylsulfonyl)methyl)-11-oxo-3,4,10,11-tetrahydro-1H-1,4,10-triazadibenzo[cd,f]azulen-3-yl)propanoyl)piperazine-1-carboxylate] | 9.26 nM | 2.36 nM | 342 nM
CCNC(=O)c1[nH]c2c(=O)n(C)cc3c2c1CN(c1ccc(Cl)cc1)c1ccccc1-3 [Example 127, 4-(4-chlorophenyl)-N-ethyl-10-methyl-11-oxo-3,4,10,11-tetrahydro-1H-1,4,10-triazadibenzo[cd,f]azulene-2-carboxamide] | 2.68 nM | 1.35 nM | 41.7 nM
CC(=O)OCCCCCCC1c2c[nH]c3c(=O)n(C)cc(c23)-c2cc(CS(C)(=O)=O)ccc2N1c1ccc(F)cc1F (stereo not drawn) [Example 128, 6-(4-(2,4-difluorophenyl)-10-methyl-7-((methylsulfonyl)methyl)-11-oxo-3,4,10,11-tetrahydro-1H-1,4,10-triazadibenzo[cd,f]azulen-3-yl)hexyl acetate] | 29.1 nM | 2 nM | 72.9 nM
Cn1cc2c3c(c[nH]c3c1=O)C(CN)N(c1ccc(F)cc1F)c1ccc(CS(C)(=O)=O)cc1-2 (stereo not drawn) [Example 129, 3-(aminomethyl)-4-(2,4-difluorophenyl)-10-methyl-7-((methylsulfonyl)methyl)-3,4-dihydro-1H-1,4,10-triazadibenzo[cd,f]azulen-11(10H)-one] | 16.2 nM | 2.5 nM | 250 nM
Cn1cc2c3c(c[nH]c3c1=O)C(CCC(=O)N1CCNCC1)N(c1ccc(F)cc1F)c1ccc(CS(C)(=O)=O)cc1-2 (stereo not drawn) [Example 131, 4-(2,4-difluorophenyl)-10-methyl-7-((methylsulfonyl)methyl)-3-(3-oxo-3-(piperazin-1-yl)propyl)-3,4-dihydro-1H-1,4,10-triazadibenzo[cd,f]azulen-11(10H)-one] | 10.7 nM | 2.35 nM | > 1000 nM
Cn1cc2c3c(c[nH]c3c1=O)C(CCC(=O)NC1CCNCC1)N(c1ccc(F)cc1F)c1ccc(CS(C)(=O)=O)cc1-2 (stereo not drawn) [Example 132, 3-(4-(2,4-difluorophenyl)-10-methyl-7-((methylsulfonyl)methyl)-11-oxo-3,4,10,11-tetrahydro-1H-1,4,10-triazadibenzo[cd,f]azulen-3-yl)-N-(piperidin-4-yl)propanamide] | 11.3 nM | 3.14 nM | > 1000 nM
CC(=O)OCC(CCC1c2c[nH]c3c(=O)n(C)cc(c23)-c2cc(CS(C)(=O)=O)ccc2N1c1ccc(F)cc1F)OC(C)=O (stereo not drawn) [Example 133, 4-(4-(2,4-difluorophenyl)-10-methyl-7-((methylsulfonyl)methyl)-11-oxo-3,4,10,11-tetrahydro-1H-1,4,10-triazadibenzo[cd,f]azulen-3-yl)butane-1,2-diyl diacetate] | 9.29 nM | 1.4 nM | 204 nM
COC(=O)CCCCC1c2c[nH]c3c(=O)n(C)cc(c23)-c2cc(CS(C)(=O)=O)ccc2N1c1ccc(F)cc1F (stereo not drawn) [Example 134, methyl 5-(4-(2,4-difluorophenyl)-10-methyl-7-((methylsulfonyl)methyl)-11-oxo-3,4,10,11-tetrahydro-1H-1,4,10-triazadibenzo[cd,f]azulen-3-yl)pentanoate] | 14.4 nM | 1.11 nM | 182 nM
Cn1cc2c3c(c[nH]c3c1=O)C(CNC(=O)CNC(=O)OC(C)(C)C)N(c1ccc(F)cc1F)c1ccc(CS(C)(=O)=O)cc1-2 (stereo not drawn) [Example 135, tert-butyl (2-(((4-(2,4-difluorophenyl)-10-methyl-7-((methylsulfonyl)methyl)-11-oxo-3,4,10,11-tetrahydro-1H-1,4,10-triazadibenzo[cd,f]azulen-3-yl)methyl)amino)-2-oxoethyl)carbamate] | 11.4 nM | 2.14 nM | 510 nM
Cn1cc2c3c(c[nH]c3c1=O)C(CCCCCCO)N(c1ccc(F)cc1F)c1ccc(CS(C)(=O)=O)cc1-2 (stereo not drawn) [Example 136, 4-(2,4-difluorophenyl)-3-(6-hydroxyhexyl)-10-methyl-7-((methylsulfonyl)methyl)-3,4-dihydro-1H-1,4,10-triazadibenzo[cd,f]azulen-11(10H)-one] | 13.2 nM | 1.33 nM | 49.2 nM
Cn1cc2c3c(c[nH]c3c1=O)C(CNC(=O)c1ccccc1)N(c1ccc(F)cc1F)c1ccc(CS(C)(=O)=O)cc1-2 (stereo not drawn) [Example 137, N-((4-(2,4-difluorophenyl)-10-methyl-7-((methylsulfonyl)methyl)-11-oxo-3,4,10,11-tetrahydro-1H-1,4,10-triazadibenzo[cd,f]azulen-3-yl)methyl)benzamide] | 51.7 nM | 3.87 nM | 240 nM
Cn1cc2c3c(c[nH]c3c1=O)C(CNC(=O)CN)N(c1ccc(F)cc1F)c1ccc(CS(C)(=O)=O)cc1-2 (stereo not drawn) [Example 139, 2-amino-N-((4-(2,4-difluorophenyl)-10-methyl-7-((methylsulfonyl)methyl)-11-oxo-3,4,10,11-tetrahydro-1H-1,4,10-triazadibenzo[cd,f]azulen-3-yl)methyl)acetamide] | 17.5 nM | 2.33 nM | 627 nM
Cn1cc2c3c(c[nH]c3c1=O)C(CCC(O)CO)N(c1ccc(F)cc1F)c1ccc(CS(C)(=O)=O)cc1-2 (stereo not drawn) [Example 140, 4-(2,4-difluorophenyl)-3-(3,4-dihydroxybutyl)-10-methyl-7-((methylsulfonyl)methyl)-3,4-dihydro-1H-1,4,10-triazadibenzo[cd,f]azulen-11(10H)-one] | 9.99 nM | 2.24 nM | 936 nM
Cn1cc2c3c(c[nH]c3c1=O)C(CCCO)N(c1ccc(F)cc1F)c1ccc(CS(C)(=O)=O)cc1-2 (stereo not drawn) [Example 142, 4-(2,4-difluorophenyl)-3-(3-hydroxypropyl)-10-methyl-7-((methylsulfonyl)methyl)-3,4-dihydro-1H-1,4,10-triazadibenzo[cd,f]azulen-11(10H)-one] | 8.61 nM | 0.6 nM | 51.8 nM
Cn1cc2c3c(c[nH]c3c1=O)C(CCCOc1ccccc1)N(c1ccc(F)cc1F)c1ccc(CS(C)(=O)=O)cc1-2 (stereo not drawn) [Example 143, 4-(2,4-difluorophenyl)-10-methyl-7-((methylsulfonyl)methyl)-3-(3-phenoxypropyl)-3,4-dihydro-1H-1,4,10-triazadibenzo[cd,f]azulen-11(10H)-one] | 54.9 nM | 3.06 nM | 175 nM
Cn1cc2c3c(c[nH]c3c1=O)C(CCCOc1ccccc1)N(c1ccc(F)cc1F)c1ccc(CS(C)(=O)=O)cc1-2 [Example 145, (R)-4-(2,4-difluorophenyl)-10-methyl-7-((methylsulfonyl)methyl)-3-(3-phenoxypropyl)-3,4-dihydro-1H-1,4,10-triazadibenzo[cd,f]azulen-11(10H)-one] | 55.1 nM | 1.38 nM | 80.6 nM
